Experimental data reported in patent publication US9347013B2, “Natural oil derivative based thickener components used in grease compositions and processes for making such compositions” (Elevance Renewable Sciences, Inc., priority 2014, dated 2016).

What was measured:
[1] = Log P (oil solubility) of grease complexing agents; conditions: more oil soluble than azelaic acid
[2] = physchem

Structure (SMILES) | oil solubility relative to azelaic acid [1] | logP [2]
O=C(O)CCCCCCCCCCCCCCCCC(=O)O [ERS ODDA (C18), octadecanedioic acid] | about 1.5 times | 3
O=C(O)CCCCCCCC(=O)O [Azelaic (C9), azelaic acid, reference compound] |  | 2.01
